# Laboratory results from patent publication US20220409617A1, “Drug Formulations and Methods of Treatment for Metabolic Disorders” (The Regents of the University of California, priority 2019, published 2022).
# Tested on: 3T3-L1 adipocytes
# Test: Insulin-stimulated 2-deoxyglucose uptake
# Assay type: cell-based, mouse
# Conditions: 3 h, 893 10 μM, MK-2206 2 μM
# Description: 3T3-L1 cells were maintained in DMEM with 10% FBS and 1% penicillin-streptomycin until induced to differentiate. 3T3-L1 pre-adipocytes were differentiated as described in (M. P. Valley, et al., Anal. Biochem. 505: 43-50, 2016, the disclosure of which is incorporated herein by reference) with slight modifications. Briefly, pre-adipocytes were grown to confluence. After 2 d, cells were induced with maintenance media containing 500 μM IBMX (15879, Sigma-Aldrich, St. Louis, Mo.), 1 μM dexamethasone (D4902, Sigma-Aldrich), 5 μg/mL bovine insulin (10516, Sigma-Aldrich), and 5 μM troglitazone (50-115-0786, ApexBio). Media was changed every 2-3 d for 7 d. On day 7 post-induction, media was changed to maintenance media+5 μg/mL bovine insulin. On day 9 post-induction, media was changed to maintenance media. Mature adipocytes were used 12-14 d post-induction for all experiments. LSL-KrasG12D mouse embryonic fibroblasts (MEFs) with and without Cre-mediated deletion of the STOP cassette were obtained from David Tuveson (Cold Spring Harbor Laboratory, Cold Spring Harbor N.Y., USA) in 2000. p53^flox/flox MEFs were derived in house (2015) from C57BL/6 mice using standard techniques and immortalized by transient expression of Cre recombinase and deletion of p53. MEFs were cultured and maintained in DMEM with 10% FBS and 1% penicillin-streptomycin. […]
smiles,measurement,value
CCCCCCCCc1ccc([C@H]2CCN[C@@H]2CO)cc1.Cl [compound 893],Insulin-stimulated glucose uptake,"but not sphingolipid-like compound 893, impeded insulin-stimulated glucose uptake in adipocytes"
